What was measured:
[1] = system: STZ-diabetic rats; experiment: AGE levels in the kidney cortex of STZ-diabetic rats; assay type: in vivo, rat; details: 12 weeks, mean ± SD, n=8
Experimental: (§1) Male Sprague-Dawley male rats, weighing 200-250 g, aged 8-10 weeks, were used. Diabetes was induced by administration of streptozotocin (STZ, Sigma-Aldrich, USA) in 0.1 mol/L sodium citrate (pH 4.5) at a dose of 55 mg/kg intraperitoneally. After 48 hours injection, blood glucose levels of the animals were examined using glucose meter. The induction of diabetes was confirmed when the blood glucose level was greater than 300 mg/dl. Animals were maintained in diabetic conditions for 2 weeks without any treatment and blood glucose was determined every week to ensure the subsistence of diabetes. Animals with uncertain blood glucose levels or blood glucose exceeding 600 mg/dl were excluded from the study.
(§2) HEM was suspended in 1% carboxymethylcellulose (CMC) before use. Aminogunidine was dissolved in water first and then added into 1% CMC before use. […] The diabetes-induced and the normal control groups consisted of 8 animals of each. The initial body weights and blood glucose levels of the diabetic animals were similar among the three groups. […] The normal control group and the diabetic control group were administered with equivalent volume of CMC daily for 12 weeks. The standard rat diet and water were available ad libitum throughout the entire treatment period. […]

[2] = system: STZ-diabetic rats; experiment: Body weight gain and general well-being in STZ-diabetic rats, 12 weeks treatment; assay type: in vivo, rat
Experimental: as §1
as §2, with “weeks.” for “weeks. The standard rat diet and water were available ad libitum throughout the entire treatment period.”
The general behavioral status of the animals (i.e. locomotor activity, alertness to environmental changes) was observed every day, and the body weight and food intake were measured weekly.

[3] = system: STZ-induced diabetic rats; experiment: Immunohistochemical staining for insulin in pancreatic islets of STZ-diabetic rats; assay type: in vivo, rat; details: 12 weeks treatment, FIG. 2
Experimental: as §1, §2

[4] = system: bovine serum albumin (BSA)-AGEs formation; experiment: Glucose and methylglyoxal induced BSA-AGEs formation in vitro (fluorescence); assay type: biochemical; details: BSA + 2 mM methylglyoxal + 200 mM glucose, 37° C., 7 days
Experimental: Glucose and Methylglyoxal induced bovine serum albumin (BSA)-AGEs formation is used to test the inhibitory effects of the inventive single herbal extract and mixed herbal extracts on the formation of AGEs in vitro.
Methods: As a protein source, BSA (Sigma-Aldrich, St. Louis, Mo., USA) was dissolved in 50 mM phosphate buffer (pH 7.4) to a concentration of 10 mg/ml. As a sugar source, a mixture of 2 mM methylglyoxal and 200 mM glucose (sigma-Aldrich, St. Louis, Mo., USA) was used. This sugar mixture was added to the prepared BSA solution for use in tests. […] Aminoguanidine (AG), a positive control drug, was tested in the same manner except that AG was dissolved in distilled water. As a negative control group, a culture consisting of BSA, the sugar mixture and 10% Tween80 was cultured. As blanks to the control and test groups, the materials for the test group and the materials for the control group were used after preparation without incubation. Five samples for each group were used to reduce errors to the lowest possible extent. After 7 days incubation, the amounts of AGEs in test samples were determined by measuring the fluorescence at an emission wavelength of 440 nm and an excitation wavelength at 370 nm using a fluorescence Spectrophotometer. The inhibition (%) of the formation of AGEs was calculated according to the following equation:
Inhibition (%) of production=100−[(fluorescent intensity of test group−fluorescent intensity of blank to test group)/(fluorescent intensity of control group−fluorescent intensity of blank to control group)]×100.

[5] = system: STZ-diabetic rats; experiment: Fluorescent AGEs and CML-AGE in the descending aorta of STZ-diabetic rats; assay type: in vivo, rat; details: 12 weeks, FIG. 6 and FIG. 7
Experimental: as §1, §2

[6] = system: STZ-induced diabetic rats; experiment: AGE-fluorescence in the pancreas of STZ-diabetic rats; assay type: in vivo, rat; details: 12 weeks treatment, FIG. 3
Experimental: as §1, with “Animals with uncertain blood glucose levels or blood glucose exceeding 600 mg/dl were excluded from the study.” left out
Minced pancreatic tissue was delipidated with chloroform and methanol (2:1,v/v) overnight. […] The amounts of AGEs in these alkali-soluble samples were determined by measuring the fluorescence at an emission wavelength of 440 nm and an excitation wavelength at 370 nm using a fluorescence Spectrophotometer. A native bovine serum albumin (BSA) preparation (1 mg/ml of 0.1 N NaOH) was used as a standard, and its fluorescence intensity was defined as one arbitrary unit (AU). The fluorescence values of samples were measured at a protein concentration of 1 mg/ml and expressed in arbitrary unit (AU) compared with a native BSA preparation. Sample protein concentrations were determined using Bradford method.

[7] = system: STZ-diabetic rats; experiment: Renal oxidative stress (SOD activity, MDA) in STZ-diabetic rats; assay type: in vivo, rat; details: renal cortical tissue, 12 weeks, mean ± SD, n=8
Experimental: as §1
(§3) HEM was suspended in 1% carboxymethylcellulose (CMC) before use. Aminogunidine was dissolved in water first and then added into 1% CMC before use. […] The diabetes-induced and the normal control groups consisted of 8 animals of each. […]
For measurements of SOD activity and MDA contents, the renal cortical tissues were homogenized in a buffer solution (0.25 M sucrose, 0.5 mM EDTA, 50 mM HEPES, protease inhibitors) on ice and centrifuged at 4° C. at 12,000 rpm for 20 min. The supernatants were collected and analyzed with corresponding assay kits (Nanjing Jiancheng Shengwu Yanjiu Suo, Nanjing, China) according to the manufacturer's instructions, […]

[8] = system: STZ-diabetic rats; experiment: 24-hr urinary albumin excretion in STZ-diabetic rats; assay type: in vivo, rat; details: 12 weeks, P<0.01, FIG. 8
Experimental: as §1
as §3, with “each. The initial body weights and blood glucose levels of the diabetic animals were similar among the three groups.” for “each.”
Development of albuminuria is a cardinal manifestation of glomerular injury and a pathological factor in the progression of renal dysfunction. […] The levels of urinary albumin were quantified using a commercial assay kit (Guangzhou WhiJa Technology, Inc. Guangzhou, China), according to the manufacturer's instructions.

`N=C(N)NN` [Aminoguanidine, aminoguanidine] was tested, and the “AGE-fluorescence in the kidney cortex” value [1] was 3.4 ± 0.5 AU/mg protein, the “CML-AGE in the kidney cortex” value [1] was 262.8 ± 55.4 ng/mg protein and the “body weight increase by the end of the experiment” value ([2]; 12 weeks oral treatment) was 44.0 g. The “Body weight (g) (after treatment)” value ([2]; oral gavage daily 12 weeks, HEM 500 mg/kg, AG 50 mg/kg, mean ± SD, n=8) was 258.6 ± 8.1 g, the “insulin immunostaining in the pancreatic islets” value [3] was “no evident effect” and the “Inhibition (%) of the formation of AGEs” value ([4]; 12.5 mcg/ml) was 19.6 ± 3.6%. For the same compound, the “Inhibition (%) of the formation of AGEs” value ([4]; 25 mcg/ml) was 31.7 ± 3.5%, the “Inhibition (%) of the formation of AGEs” value ([4]; 50 mcg/ml) was 44.8 ± 2.9% and the “Inhibition (%) of the formation of AGEs” value ([4]; 100 mcg/ml) was 69.9 ± 3.5%. For the same compound, the “accumulation of AGEs (fluorescent AGEs and CML-AGE) in the descending aorta” value [5] was “effectively reduced”, the “pancreatic level of AGEs (fluorescence)” value [6] was “effectively lowered” and the “Renal MDA” value [7] was 8.82 ± 1.92 μM/mg protein. The “Renal SOD activity” value [7] was 1.78 ± 0.42 Unit/mg protein and the “reduction of 24-hr urinary albumin excretion compared with STZ-diabetic control group” value [8] was 37.3%.

Reference: US20110300246A1, “Herbal Extracts for Treatment of Diabetic Complications and Oxidative Stress” (priority 2010, published 2011)
